Experimental data: patent publication EP4674965A1, “SIRNA TARGETING INHIBIN ?E, SIRNA CONJUGATE, AND MEDICAL USE THEREOF” (Tuojie Biotech (Shanghai) Co., Ltd., priority 2023, dated 2024)

How the values were obtained:
[1] = tested on: monkey INHBE; assay: Multi-concentration-point inhibitory activity against INHBE in primary monkey hepatocytes (PCHs), qPCR; type: cell-based; conditions: 24 h; for IC50: PCH, monkey INHBE mRNA
Source text: (§1) After the Q-PCR assay was completed, the corresponding Ct values were obtained based on the threshold automatically set by the system. The expression of a certain gene can be relatively quantified by comparing the Ct values. Comparing Ct refers to calculating the differences in gene expression by the differences from the Ct value of the internal reference gene, which is also referred to as 2-ΔΔCt, where ΔΔCt = [(Ct target gene in experimental group - Ct internal reference in experimental group) - (Ct target gene in control group - Ct internal reference in control group)]. Inhibition rate (%) = (1 - remaining level of target gene expression) × 100%.
(§2) The results are expressed relative to the remaining percentage of human INHBE mRNA expression in cells treated with the siRNA. The IC50 value corresponds to the concentration of the siRNA used when the remaining percentage of INHBE mRNA expression is 50%.
(§3) 24 h prior to transfection, PCH cells were seeded into a 96-well plate at about 30,000 cells/well, with each well containing 100 µL of a culture medium. The cells were transfected with the samples using Lipofectamine RNAi MAX (ThermoFisher, 13778150) following the instruction manual of the product, with the final concentration gradients of the samples for transfection being 20 nM, 4 nM, 0.8 nM, 0.16 nM, 0.032 nM, 0.0064 nM, and 0.00128 nM. After 24 h of treatment, total cellular RNA extraction was performed using a high-throughput cellular RNA extraction kit (FG0417-L/FG0418-XL, magnetic bead method), followed by an RNA reverse transcription experiment (Takara, RR037A) and a quantitative real-time PCR (Thermo, 4444557) assay. The mRNA level of monkey INHBE was determined and calibrated on the basis of the GAPDH internal reference gene level.
In the real-time quantitative PCR assay, a probe Q-PCR assay was used. Table 15. Taqman primer information
The result analysis method and calculation method for the remaining percentage of the target mRNA expression were the same as those in Example 4.

[2] = tested on: human INHBE; assay: Multi-concentration-point inhibitory activity against INHBE in human hepatoma cell line (Huh7), qPCR; type: cell-based; conditions: for Remaining percentage of target gene mRNA expression (Huh7) (mean, %): Huh7, 24 h; for IC50: Huh7, INHBE mRNA, 24 h
Source text: as §1, §2
as §3, with “Huh7” for “PCH”, “15,000” for “30,000”, “human” for “monkey”
The instruments, primer information, and result analysis method involved in this experiment were used with reference to Example 4.

| Substance | Remaining percentage of target gene mRNA expression (PCH) (mean, %) ([1]; 0.00128 (nM per method)) | Remaining percentage of target gene mRNA expression (PCH) (mean, %) ([1]; 0.0064 (nM per method)) | Remaining percentage of target gene mRNA expression (PCH) (mean, %) ([1]; 0.032 (nM per method)) | Remaining percentage of target gene mRNA expression (PCH) (mean, %) ([1]; 0.16 (nM per method)) | Remaining percentage of target gene mRNA expression (PCH) (mean, %) ([1]; 0.8 (nM per method)) | Remaining percentage of target gene mRNA expression (PCH) (mean, %) ([1]; 4 (nM per method)) | Remaining percentage of target gene mRNA expression (PCH) (mean, %) ([1]; 20 (nM per method)) | IC50 [1] | Remaining percentage of target gene mRNA expression (Huh7) (mean, %) ([2]; 0.00128 (nM per method)) | Remaining percentage of target gene mRNA expression (Huh7) (mean, %) ([2]; 0.0064 (nM per method)) | Remaining percentage of target gene mRNA expression (Huh7) (mean, %) ([2]; 0.032 (nM per method)) | Remaining percentage of target gene mRNA expression (Huh7) (mean, %) ([2]; 0.16 (nM per method)) | Remaining percentage of target gene mRNA expression (Huh7) (mean, %) ([2]; 0.8 (nM per method)) | Remaining percentage of target gene mRNA expression (Huh7) (mean, %) ([2]; 4 (nM per method)) | Remaining percentage of target gene mRNA expression (Huh7) (mean, %) ([2]; 20 (nM per method)) | IC50 [2] |
| --- | --- | --- | --- | --- | --- | --- | --- | --- | --- | --- | --- | --- | --- | --- | --- | --- |
| TJR102152: siRNA conjugate (Tables 14, 16); SS SEQ ID NO: 245, AS SEQ ID NO: 269 (sense UAAUAAUACUAACAUGUUA; antisense UAACAUGUUAGUAUUAUUAUG; conjugate ligand attached, 2'-OMe/2'-F pattern not given here) | 104.56% | 77.88% | 49.77% | 43.37% | 49.75% | 46.38% | 39.63% | 0.0302 nM | 108.45% | 109.51% | 98.76% | 76.27% | 51.25% | 37.74% | 25.82% | 0.92 nM |
| TJR102154: siRNA conjugate (Tables 14, 16); SS SEQ ID NO: 243, AS SEQ ID NO: 267 (sense UCAAAGCUAUUUUCAUAAU; antisense AUUAUGAAAAUAGCUUUGACU; conjugate ligand attached, 2'-OMe/2'-F pattern not given here) | 85.05% | 96.98% | 72.01% | 50.20% | 47.38% | 51.47% | 58.66% | 0.04 nM | 103.41% | 100.81% | 91.17% | 50.85% | 32.23% | 30.29% | 20.46% | 0.176 nM |
